Laboratory results published in patent US6861071B2, “Highly absorptive solid preparation” (Daiichi Pharmaceutical Co., Ltd., priority 2000, dated 2005).

Experiment: Promotion of dissolution of sitafloxacin by tartaric acid
Type: physicochemical
Source text: Accordingly, tartaric acid is preferably added in an amount of 0.1 to 1 mole, preferably 1/6 mole to 0.7 mole, more preferably 0.25 to 0.5 mole, especially about 0.5 mole to 1 mole of a quinolone compound, particularly sitafloxacin.

Effect for promoting dissolution of sitafloxacin (0.1 time molar amount (18.3 mg) of tartaric acid together with 500 mg of sitafloxacin (as an anhydrate)): marked improving effects
Effect for promoting dissolution of sitafloxacin (0.5 time molar amount (92 mg) of tartaric acid in combination with 500 mg of sitafloxacin): effect becomes maximum
SMILES: N[C@@H]1CN(c2c(F)cc3c(=O)c(C(=O)O)cn([C@@H]4C[C@@H]4F)c3c2Cl)CC12CC2 [sitafloxacin, (−)-7-[(7S)-7-amino-5-azaspirol[2.4]heptan-5-yl]-8-chloro-6-fluoro-1-[(1R,2S)-2-fluoro-1-cyclopropyl]-1,4-dihydro-4-oxo-3-quinolinecarboxylic acid]
